These results are taken from patent US20100324279A1, “CRYSTAL FORMS OF 2-[2-(4-CHLOROPHENYL)ETHOXY]ADENOSINE” (priority 2007, published 2010).

In general, solubility refers to the dissolved amount per volume that the medium holds.

The structures appear in SMILES notation. Values after ≈ are worked out from the molar mass of the structure shown.

A short description of data set [1]: Approximate solubilities of A-type crystals of MRE-0094 in test solvents. It is filed as physicochemical. To be noted: thermodynamic from solid. As to the method: Weighed samples of MRE-0094 (typically 30-60 mg) are treated with aliquots of the test solvent. Solvents are either reagent or HPLC grade. The aliquots are usually 200 μL or 500 μL. Between additions the mixtures are sonicated. […] Note that actual solubilities may be greater than those calculated due to the volume of the solvent aliquots or to a slow rate of dissolution. […] The solubilities are reported to the nearest mg/mL.

Data set [2] can be described thus: Moisture sorption/desorption analysis. It is filed as physicochemical. The settings on record: for Solid material after moisture sorption identified by XRPD: after sorption/desorption 5 to 95% RH; for Moisture sorption: total weight gain: between 5% and 95% relative humidity (RH); for Hygroscopicity based on the moisture sorption data: exposed to high relative humidity; for Weight lost upon desorption: after sorption to 95% RH. As to the method:
Moisture sorption/desorption analyses may be performed, e.g., on a VTI SGA-100 Vapor Sorption Analyzer Sorption and desorption data are collected, e.g., over a range of 5 to 95% relative humidity (RH) at 10% RH intervals under a nitrogen purge. Samples need not to be dried prior to analysis. Equilibrium criteria used for analysis are, e.g., less than 0.01% weight change in 5 min, with a maximum equilibration time of 3 h if the weight criterion is not met NaCl and PVP may used as calibration standards.

The nature of data set [3]: Approximate solubilities of A-type crystals of MRE-0094 in test solvents. It is filed as physicochemical. To be noted: organic solvent or mixture, thermodynamic from solid; PG, RT; agitated two days, calculated from difference between starting and ending weights.
Data set [4] in a line: Heat stress studies and variable temperature XRPD. It is filed as physicochemical. As to the method: For heat stress studies, samples of MRE-0094 A-type crystals are heated isothermally at different temperatures to investigate the effect of temperatures on solid state conversions. The samples are heated for up to 15 min. The solid material is allowed to cool before analyzing by XRPD.
(2 min). Variable temperature XRPD (VT-XRPD) may be performed on A-type crystals of MRE-0094 to better understand its thermal behavior. […] The sample remains as B-type crystals up to 165° C. […] It is likely that the melting of B-type crystals, subsequent recrystallization, and final melting of the solid occurs too fast to be captured by VT-XRPD. Based on the VT-XRPD data, the thermal events observed by DSC at approximately 117° C. and 126° C. are due to the solid conversion followed by the subsequent recrystallization to form B-type crystals.

Data set [5] in a line: Desolvation/dehydration studies under various drying conditions (XRPD). The data set is classed as physicochemical. The settings on record: for Solid form after exposure to ambient conditions: eight days. As to the method: Desolvation studies under various conditions may be performed to investigate the effects of drying conditions on the C-type crystals. […] However, the anhydrous form to which C-type crystals convert may be dependent on the drying conditions and temperature.
Desolvation studies under various conditions may be conducted to investigate the effects of drying conditions on F-type crystals.
Dehydration studies under various conditions are performed to investigate the effects of drying conditions on the I-type crystals.

Data set [6] is described as follows: Stability to mechanical grinding/milling followed by vapor stress (XRPD). It is filed as physicochemical. The settings on record: ball-milling, then about 97% relative humidity, K2SO4 humidity jar, 1 day. An excerpt: Stability to grinding may be assessed by measurement of an appropriate physical property before and after grinding. Where the physical property remains substantially unchanged substantial stability to grinding is indicated. Suitable physico-chemical properties for measurement include a melting point or DSC analysis, a X-ray diffraction pattern, an infrared absorption spectrum and a Raman spectrum, particularly the X-ray diffraction pattern.
Stability to mechanical grinding/milling may be tested, e.g., by employing a small stainless steel cylinder The cylinder is charged with a weighted amount of a crystal form of MRE-0094 and a stainless steel ball is added, the cylinder is capped and the unit is placed on a Retsch Mixer Mill (Type MM 200) for a total of 30 min at a frequency of 30/s (ball-milling).

Data set [7] can be described thus: Phase I study: plasma concentrations of MRE-0094 (systemic absorption). It is filed as in vivo, patients. To be noted: any topical dose concentration (5, 50, 500 μg/g gel). As to the method: (§1) MRE-0094 is administered to patients with neuropathic, diabetic foot ulcers (DFU). Patients 18-80 years old are randomized in a 1:3 ratio to a standard DFU care and a vehicle gel, or a standard DFU care and a gel containing MRE-0094 as described herein above. Standard care include routine sharp debridement, pressure offloading, and maintaining a moist wound environment. Inclusion criteria includes full thickness wounds between 1 and 10 cm^2 in area. Exclusion criteria includes arterial insufficiency, renal or hepatic insufficiency, active infection, or osteomyelitis. Patients are enrolled into 3 groups, and receive drug at an escalating concentration by group of 5 μg/g, 50 μg/g, or 500 μg/g. Safety data are reviewed by an independent safety board prior to escalating dose. Drug or vehicle is applied topically once daily for 28 days. Outcome measures include adverse events and other safety assessments, plasma concentrations of the active agent MRE-0094, percent of wound closure, and rate of wound closure. Thirty-six patients are randomized (25 active agent, 11 vehicle gel, i.e., placebo) with an average age of 54.8 years, 78% are male.

The test system of the next data set is diabetic ulcers. The settings on record: healthy BALB/C mice; cited from earlier work.
Data set [8] concerns neuropathic, diabetic foot ulcers (DFU). The data set can be described thus: Phase I study of topical MRE-0094 gel: wound closure. It is filed as in vivo. The settings on record: DFU patients; for % Wound Closure (Day 28): topically once daily for 28 days; for Median Number of Days to: 50% Closure / Median Number of Days to: 75% Closure: topically once daily. As to the method: as §1

As to `Nc1nc(OCCc2ccc(Cl)cc2)nc2c1ncn2[C@@H]1O[C@H](CO)[C@@H](O)[C@H]1O` [A-type crystal form, 2-[2-(4-chlorophenyl)ethoxy]adenosine], the solubility was 9000 µg/mL (≈ 21.3 mM) in data set [1] (aqueous with cosolvent or surfactant or cyclodextrin, EtOH:water - 1:1, RT); 6000 µg/mL (≈ 14.2 mM) in [1] (aqueous with cosolvent or surfactant or cyclodextrin, water:PG - 1:1, RT); 17000 µg/mL (≈ 40.3 mM) in data set [1] (organic solvent or mixture, 1,4-dioxane, RT); less than 3000 µg/mL in data set [1] (organic solvent or mixture, ACN, RT); less than 2000 µg/mL in [1] (organic solvent or mixture, DCM, RT); 179000 µg/mL (≈ 424 mM) in data set [1] (organic solvent or mixture, DMF, RT). For the same molecule, the solubility in data set [1] (organic solvent or mixture, EtOAc, RT) was less than 4000 µg/mL; in [1] (organic solvent or mixture, EtOH, RT), 7000 µg/mL (≈ 16.6 mM); in data set [1] (organic solvent or mixture, EtOH:water - 19:1, RT), 12000 µg/mL (≈ 28.4 mM); in data set [1] (organic solvent or mixture, IPA, RT), 4000 µg/mL (≈ 9.48 mM); in [1] (organic solvent or mixture, MEK, RT) it was 4000 µg/mL (≈ 9.48 mM); in data set [1] (organic solvent or mixture, MeOH, RT), 4000 µg/mL (≈ 9.48 mM). The solubility was 11000 µg/mL (≈ 26.1 mM) in data set [1] (organic solvent or mixture, TFE, RT); 23000 µg/mL (≈ 54.5 mM) in data set [1] (organic solvent or mixture, THF, RT); 5000 µg/mL (≈ 11.9 mM) in [1] (organic solvent or mixture, acetone, RT); less than 4000 µg/mL in data set [1] (organic solvent or mixture, heptane, RT); less than 4000 µg/mL in data set [1] (organic solvent or mixture, toluene, RT); less than 300 µg/mL in [1] (water, RT). Moreover, in data set [2], the “Solid material after moisture sorption identified by XRPD” value (“Solid material” below) is “A-type crystal form”. In data set [2], the “Moisture sorption: total weight gain” value was “approximately 4.3%”. Also, the “Moisture sorption: weight gain” value in [2] (between 5 and 55% RH) is reported as “approximately 0.3%”. Moreover, the “Moisture sorption: additional weight gain” value in data set [2] (between 55% and 95% RH) came to 4.0%. For the same molecule, in [2], the “Hygroscopicity based on the moisture sorption data” value (“Hygroscopicity based” below) is on record as “hygroscopic”. The solubility at 2 days in data set [3] was less than 71000 µg/mL. In addition, the “Temperature of solid form conversion in heat stress studies” value in data set [4] (isothermal heating, 2 min) was “approximately 164 °C”. Also, the “Temperature of conversion to B-type crystal form (VT-XRPD)” value in data set [4] (variable temperature XRPD) was 120 °C. In addition, the “Temperature up to which the crystal form remains as such (VT-XRPD)” value in data set [4] (variable temperature XRPD) was “up to 115 °C”.

With `Nc1nc(OCCc2ccc(Cl)cc2)nc2c1ncn2[C@@H]1O[C@H](CO)[C@@H](O)[C@H]1O` [F-type crystal form, 2-[2-(4-chlorophenyl)ethoxy]adenosine], the “Solid form after exposure to ambient conditions” value in data set [5] (listed as F-type crystals) was “Amorphous/low crystalline material”. The “Solid form after desolvation” value in data set [5] (vacuum oven and 60° C.) was “low crystalline mixture of A-type and B-type crystals”.

On to `Nc1nc(OCCc2ccc(Cl)cc2)nc2c1ncn2[C@@H]1O[C@H](CO)[C@@H](O)[C@H]1O` [I-type crystal form, 2-[2-(4-chlorophenyl)ethoxy]adenosine], for which the “Solid form after dehydration” value in data set [5] (various drying conditions) is “either B-type, or a mixture of A-type and B-type crystals”.

In the case of `Nc1nc(OCCc2ccc(Cl)cc2)nc2c1ncn2[C@@H]1O[C@H](CO)[C@@H](O)[C@H]1O` [G-type crystal form, 2-[2-(4-chlorophenyl)ethoxy]adenosine], in data set [2], the “Weight lost upon desorption” value is reported as “Approximately 2.2%”, the “Solid material” value is listed as “G-type crystal form”, the “Moisture sorption: total weight gain” value is on record as “approximately 2.4%” and the “Hygroscopicity based” value is “hygroscopic”. Besides, the “Stability to mechanical milling followed by vapor stress” value in data set [6] is given as “substantially stable”.

Regarding `Nc1nc(OCCc2ccc(Cl)cc2)nc2c1ncn2[C@@H]1O[C@H](CO)[C@@H](O)[C@H]1O` [B-type crystal form, 2-[2-(4-chlorophenyl)ethoxy]adenosine], in data set [2], the “Weight lost upon desorption” value is given as “Approximately 3.7%”, the “Solid material” value is reported as “B-type crystal form”, the “Moisture sorption: total weight gain” value was “approximately 3.9%” and the “Hygroscopicity based” value is recorded as “hygroscopic”.

With `Nc1nc(OCCc2ccc(Cl)cc2)nc2c1ncn2[C@@H]1O[C@H](CO)[C@@H](O)[C@H]1O` [C-type crystal form, 2-[2-(4-chlorophenyl)ethoxy]adenosine], the “Solid form after exposure to ambient conditions” value in data set [5] is given as “does not completely convert to A-type crystals”. Also, the “Solid form after desolvation” value in data set [5] (heated at 60° C. for eight days or dried in vacuo for six days) is given as “convert to A-type crystal form”.

For the molecule `Nc1nc(OCCc2ccc(Cl)cc2)nc2c1ncn2[C@@H]1O[C@H](CO)[C@@H](O)[C@H]1O` [MRE-0094, 2-[2-(4-chlorophenyl)ethoxy]adenosine], in [7], the “Systemic absorption of MRE-0094” value is reported as “No systemic absorption”. In the data set with diabetic ulcers, the “Wound healing of diabetic ulcers” value is on record as “promote wound healing”. Besides, in data set [8] (5 μg/g gel), the “% Wound Closure (Day 28)” value is 60.7%, the “Median Number of Days to: 50% Closure” value worked out at 8 days and the “Median Number of Days to: 75% Closure” value came to 14 days. In addition, in data set [8] (50 μg/g gel), the “% Wound Closure (Day 28)” value was found to be 67.5%, the “Median Number of Days to: 50% Closure” value was determined as 12 days and the “Median Number of Days to: 75% Closure” value worked out at 28 days. In addition, in data set [8] (500 μg/g gel), the “% Wound Closure (Day 28)” value was 35.4%, the “Median Number of Days to: 50% Closure” value was determined as 14 days and the “Median Number of Days to: 75% Closure” value worked out at 36 days.
